# Test system: Aβ42 release
# Experiment: Aβ42 release from HEK cells stably expressing APPswe, Meso Scale Discovery electrochemiluminescence assay
# Format: cell-based
# Details: Homo sapiens, HEK293; HEK cell line stably expressing APPswe; 4-6 h incubation with test compound; Aβ42 secreted to cell medium; read-out: pIC50 values of Aβ42 release (converted)
# Protocol: The level of activity of the compounds on Aβ formation was tested using the following method:
# Compounds were diluted in 100% DMSO and stored at […] prior to use. Human Embryonic Kidney (HEK) cell line stably expressing APP with the Swedish mutation (APPswe) were cultured using Dulbecco's Modified Eagles medium (DMEM) supplied with […] glucose, Na-pyruvate and GlutaMAX with 10% FBS, 100 U/ml penicillin-streptomycin (PEST) respectively, 1×non-essential amino acids (NEAA), […], 100 μg/ml Zeocine. Cells at about 80% confluence were washed with PBS, detached from culture flasks using 1×Trypsin/EDTA diluted in PBS, re-suspended in cell media and plated in 384-well poly-d-lysine coated cell culture plates at about 10000-15000 cells/well, in 25 μL cell media. Optionally, cryo-preserved cells (frozen and stored at −140° C. in 90% cell media and 10% DMSO) were thawed, washed and plated as above. Next the cells were incubated for 15-24 h at 37° C. and 5% CO2, after which cell medium was changed. Fresh medium containing test compound diluted ×200 from prepared compound plate was added to the cells before further incubation for 4-6 hours at 37° C. and 5% CO2. After incubation with test compound the amount of Aβ peptides, including Aβ42, Aβ40, Aβ39, Aβ38 and Aβ37, secreted to cell medium was analyzed using the electrochemiluminescence assay technology from Meso Scale Discovery Technology, in combination with specific antibodies raised against the different Aβ peptides. Potential cytotoxic effects of the compounds were usually assayed by measuring the ATP content (ViaLight) from cell lysate.
row,SMILES,IC50 [nM]
1,"COc1nc(Nc2ccc3c(n2)OC(c2cccc(C)n2)CN(C)C3)ccc1-c1cnn(C)c1 (centres unmarked) [Example 53, N-(6-Methoxy-5-(1-methyl-1H-pyrazol-4-yl)pyridin-2-yl)-4-methyl-2-(6-methylpyridin-2-yl)-2,3,4,5-tetrahydropyrido[3,2-f][1,4]oxazepin-8-amine]",50.1
2,"COc1cc(Nc2ccc3c(n2)OC(c2ccccn2)CN(C)C3)ccc1-n1cnc(C)c1 (centres unmarked) [Example 37, N-(3-Methoxy-4-(4-methyl-1H-imidazol-1-yl)phenyl)-4-methyl-2-(pyridin-2-yl)-2,3,4,5-tetrahydropyrido[3,2-f][1,4]oxazepin-8-amine]",126
3,"OCCN1Cc2ccc(Nc3ccc(-n4cncn4)c(Cl)c3)nc2O[C@H](c2ccccc2)C1 [Example 32, (R)-2-(8-(3-Chloro-4-(1H-1,2,4-triazol-1-yl)phenylamino)-2-phenyl-2,3-dihydropyrido[3,2-f][1,4]oxazepin-4(5H)-yl)ethanol]",501
4,"COc1cc(Nc2ccc3c(n2)O[C@H](c2ccccc2)CN(C)C3)ccc1-n1cnc(C)c1 [Example 10, (R)—N-(3-methoxy-4-(4-methyl-1H-imidazol-1-yl)phenyl)-4-methyl-2-phenyl-2,3,4,5-tetrahydropyrido[3,2-f][1,4]oxazepin-8-amine]",12.6
5,"Cn1cc(-c2ccc(Nc3ccc4c(n3)O[C@H](c3ccccc3)CNC4)nc2)cn1 [Example 57, (R)—N-(5-(1-Methyl-1H-pyrazol-4-yl)pyridin-2-yl)-2-phenyl-2,3,4,5-tetrahydropyrido[3,2-f][1,4]oxazepin-8-amine]",126
6,"COc1cc(Nc2ccc3c(n2)OC(c2ccccc2)CN(CCO)C3)ccc1-n1cnc(C)c1 (centres unmarked) [Example 46, 2-(8-(3-Methoxy-4-(4-methyl-1H-imidazol-1-yl)phenylamino)-2-phenyl-2,3-dihydropyrido[3,2-f][1,4]oxazepin-4(5H)-yl)ethanol]",25.1
7,"COc1cc(Nc2ccc3c(n2)O[C@H](c2ccccc2)CN(CCO)C3)cnc1-n1cnc(C)c1 [Example 43, (R)-2-(8-(5-methoxy-6-(4-methyl-1H-imidazol-1-yl)pyridin-3-ylamino)-2-phenyl-2,3-dihydropyrido[3,2-f][1,4]oxazepin-4(5H)-yl)ethanol]",31.6
8,"COc1cc(Nc2ccc3c(n2)OC(c2ccccc2)CN(CC#N)C3)ccc1-n1cnc(C)c1 (centres unmarked) [Example 14, 2-(8-(3-methoxy-4-(4-methyl-1H-imidazol-1-yl)phenylamino)-2-phenyl-2,3-dihydropyrido[3,2-f][1,4]oxazepin-4(5H)-yl)acetonitrile]",20
9,"COc1cc(Nc2ccc3c(n2)O[C@@H](c2ccccc2)CN(C)C3)ccc1-n1cnc(C)c1 [Example 21, (S)—N-(3-methoxy-4-(4-methyl-1H-imidazol-1-yl)phenyl)-4-methyl-2-phenyl-2,3,4,5-tetrahydropyrido[3,2-f][1,4]oxazepin-8-amine]",200
10,"COc1cc(Nc2ccc3c(n2)O[C@H](c2ccccc2)CN(CCO)C3)ccc1-n1cnc(C)n1 [Example 41, (R)-2-(8-(3-Methoxy-4-(3-methyl-1H-1,2,4-triazol-1-yl)phenylamino)-2-phenyl-2,3-dihydropyrido[3,2-f][1,4]oxazepin-4(5H)-yl)ethanol]",39.8
11,"COc1cc(Nc2ccc3c(n2)OC(c2ccccc2)CN(C(C)=O)C3)ccc1-n1cnc(C)c1 (centres unmarked) [Example 17, 1-(8-(3-methoxy-4-(4-methyl-1H-imidazol-1-yl)phenylamino)-2-phenyl-2,3-dihydropyrido[3,2-f][1,4]oxazepin-4(5H)-yl)ethanone]",79.4
12,"CN1CC(c2ccccc2)Oc2nc(Oc3ccc(-n4ccnc4)cc3)ncc2C1=O (centres unmarked) [Example 28, 2-(4-(1H-Imidazol-1-yl)phenoxy)-6-methyl-8-phenyl-7,8-dihydropyrimido[5,4-f][1,4]oxazepin-5(6H)-one]",6310
13,"Cc1nccn1-c1ccc(Nc2ccc3c(n2)OC(c2ccccc2)CN(C)C3)cc1 (centres unmarked) [Example 8, 4-Methyl-N-(4-(2-methyl-1H-imidazol-1-yl)phenyl)-2-phenyl-2,3,4,5-tetrahydropyrido[3,2-f][1,4]oxazepin-8-amine]",158
14,"COc1nc(Nc2ccc3c(n2)O[C@H](c2ccccc2)CN(C)C3)ccc1-n1cnc(C)c1 [Example 9, (R)—N-(6-methoxy-5-(4-methyl-1H-imidazol-1-yl)pyridin-2-yl)-4-methyl-2-phenyl-2,3,4,5-tetrahydropyrido[3,2-f][1,4]oxazepin-8-amine]",7.94

# From patent US20100292210A1, “Novel Compounds for A-Beta-Related Pathologies” (AstraZeneca AB, priority 2009, published 2010)
